# Source: ChEMBL document CHEMBL4385643, “Design of a brain-penetrant CDK4/6 inhibitor for glioblastoma” (Bioorg Med Chem Lett, 2019)
# Assays:
# [1] = target: Inhibitor of nuclear factor kappa-B kinase subunit beta (Homo sapiens) (UniProt O14920); experiment: Inhibition of recombinant full length human GST-tagged IKKbeta expressed in baculovirus expression system at 0.1 uM using serine/threonine-5 peptide as substrate incubated for 60 mins by Z'-LYTE assay relative to control
# [2] = target: Platelet-derived growth factor receptor alpha (Homo sapiens) (UniProt P16234); experiment: Inhibition of recombinant human GST-tagged PDGFRalpha (550 to 1089 residues) expressed in baculovirus expression system at 0.1 uM using tyrosine-4 peptide as substrate incubated for 60 mins by Z'-LYTE assay relative to control
# [3] = target: Ephrin type-A receptor 3 (Homo sapiens) (UniProt P29320); experiment: Inhibition of tracer 236 binding to recombinant human His-tagged EPHA3 (569 to 976 residues) expressed in baculovirus expression system at 0.1 uM measured after 60 mins by Lanthascreen assay relative to control
# Sequence of Ephrin type-A receptor 3 (Homo sapiens) (P29320 whole entry, the tested form may be a part): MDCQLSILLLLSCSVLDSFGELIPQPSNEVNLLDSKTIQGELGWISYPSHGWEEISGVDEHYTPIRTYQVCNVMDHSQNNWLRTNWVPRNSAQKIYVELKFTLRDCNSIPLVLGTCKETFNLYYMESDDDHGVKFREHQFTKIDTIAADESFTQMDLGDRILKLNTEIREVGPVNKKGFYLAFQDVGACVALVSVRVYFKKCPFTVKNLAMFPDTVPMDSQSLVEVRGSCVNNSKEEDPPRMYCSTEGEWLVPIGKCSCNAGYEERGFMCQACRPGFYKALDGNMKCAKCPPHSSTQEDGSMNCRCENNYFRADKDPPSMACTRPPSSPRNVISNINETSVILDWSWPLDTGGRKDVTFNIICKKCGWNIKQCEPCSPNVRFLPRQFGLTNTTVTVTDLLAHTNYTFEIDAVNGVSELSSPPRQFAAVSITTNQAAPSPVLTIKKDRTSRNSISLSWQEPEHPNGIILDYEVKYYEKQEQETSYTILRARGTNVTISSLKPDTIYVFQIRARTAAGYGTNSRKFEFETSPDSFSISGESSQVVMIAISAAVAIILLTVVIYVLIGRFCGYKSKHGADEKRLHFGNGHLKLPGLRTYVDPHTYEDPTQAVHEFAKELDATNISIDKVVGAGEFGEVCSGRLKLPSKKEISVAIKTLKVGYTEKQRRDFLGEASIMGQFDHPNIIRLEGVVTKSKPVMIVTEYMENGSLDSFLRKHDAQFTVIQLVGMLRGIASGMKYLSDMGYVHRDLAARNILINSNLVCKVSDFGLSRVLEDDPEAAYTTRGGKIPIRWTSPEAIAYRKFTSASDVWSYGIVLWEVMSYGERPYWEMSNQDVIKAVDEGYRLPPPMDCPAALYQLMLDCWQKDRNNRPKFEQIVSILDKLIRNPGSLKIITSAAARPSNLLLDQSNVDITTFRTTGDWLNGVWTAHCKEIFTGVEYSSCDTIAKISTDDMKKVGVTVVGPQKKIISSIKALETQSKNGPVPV
# [4] = target: Cytoplasmic tyrosine-protein kinase BMX (Homo sapiens) (UniProt P51813); experiment: Inhibition of recombinant full length human His-tagged BMX expressed in baculovirus expression system at 0.1 uM using tyrosine-1 peptide as substrate incubated for 60 mins by Z'-LYTE assay relative to control
# [5] = target: Homeodomain-interacting protein kinase 4 (Homo sapiens) (UniProt Q8NE63); experiment: Inhibition of recombinant full length human GST-tagged HIPK4 expressed in baculovirus expression system at 0.1 uM using serine/threonine-18 peptide as substrate incubated for 60 mins by Z'-LYTE assay relative to control
# [6] = target: Serine/threonine-protein kinase 4 (Homo sapiens) (UniProt Q13043); experiment: Inhibition of recombinant full length human GST-tagged MST1 expressed in baculovirus expression system at 0.1 uM using serine/threonine-7 peptide as substrate incubated for 60 mins by Z'-LYTE assay relative to control
# [7] = target: Serine/threonine-protein kinase TBK1 (Homo sapiens) (UniProt Q9UHD2); experiment: Inhibition of recombinant full length human GST-tagged TBK1 expressed in insect expression system at 0.1 uM using serine/threonine-5 peptide as substrate incubated for 60 mins by Z'-LYTE assay relative to control
# [8] = target: Serine/threonine-protein kinase Sgk1 (Homo sapiens) (UniProt O00141); experiment: Inhibition of recombinant human GST-tagged SGK1 catalytic domain (60 to 431 residues) expressed in baculovirus expression system at 0.1 uM using serine/threonine-6 peptide as substrate incubated for 60 mins by Z'-LYTE assay relative to control
# Sequence of Serine/threonine-protein kinase Sgk1 (Homo sapiens) (O00141 whole entry, the tested form may be a part): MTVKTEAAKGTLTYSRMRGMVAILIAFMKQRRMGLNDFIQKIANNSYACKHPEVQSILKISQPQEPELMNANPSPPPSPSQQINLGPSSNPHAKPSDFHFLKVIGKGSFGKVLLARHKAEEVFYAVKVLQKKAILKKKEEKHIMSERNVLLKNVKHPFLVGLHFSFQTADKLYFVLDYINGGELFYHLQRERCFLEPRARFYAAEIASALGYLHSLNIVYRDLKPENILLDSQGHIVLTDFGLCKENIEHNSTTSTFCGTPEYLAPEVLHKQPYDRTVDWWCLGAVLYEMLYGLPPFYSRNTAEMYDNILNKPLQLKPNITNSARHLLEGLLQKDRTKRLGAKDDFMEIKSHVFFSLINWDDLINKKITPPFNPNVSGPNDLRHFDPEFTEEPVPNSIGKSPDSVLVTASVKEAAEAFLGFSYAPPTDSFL
# [9] = target: BDNF/NT-3 growth factors receptor (Homo sapiens) (UniProt Q16620); experiment: Inhibition of recombinant human His-tagged TRKB catalytic domain (526 to 838 residues) expressed in baculovirus expression system at 0.1 uM using tyrosine-1 peptide as substrate incubated for 60 mins by Z'-LYTE assay relative to control
# [10] = target: SRSF protein kinase 3 (Homo sapiens) (UniProt Q9UPE1); experiment: Inhibition of recombinant full length human GST-tagged MSSK1 expressed in baculovirus expression system at 0.1 uM using serine/threonine-18 peptide as substrate incubated for 60 mins by Z'-LYTE assay relative to control
# Sequence of SRSF protein kinase 3 (Homo sapiens) (Q9UPE1 whole entry): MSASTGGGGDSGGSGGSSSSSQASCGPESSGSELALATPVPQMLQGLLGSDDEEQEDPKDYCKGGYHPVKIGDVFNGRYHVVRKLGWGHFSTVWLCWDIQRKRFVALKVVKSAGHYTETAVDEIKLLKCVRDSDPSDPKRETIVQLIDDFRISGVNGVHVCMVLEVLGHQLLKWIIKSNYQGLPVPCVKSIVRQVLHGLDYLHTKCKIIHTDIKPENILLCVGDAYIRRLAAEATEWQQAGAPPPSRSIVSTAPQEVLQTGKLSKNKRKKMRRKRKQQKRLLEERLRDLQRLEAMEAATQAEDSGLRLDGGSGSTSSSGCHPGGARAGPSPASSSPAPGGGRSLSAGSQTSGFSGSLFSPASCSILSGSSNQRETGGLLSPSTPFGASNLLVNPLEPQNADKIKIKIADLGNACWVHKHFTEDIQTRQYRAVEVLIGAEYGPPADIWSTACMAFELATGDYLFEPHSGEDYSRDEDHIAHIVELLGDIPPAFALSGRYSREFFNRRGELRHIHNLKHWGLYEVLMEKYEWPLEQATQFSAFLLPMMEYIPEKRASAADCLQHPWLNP
# [11] = target: MAP kinase-interacting serine/threonine-protein kinase 2 (Homo sapiens) (UniProt Q9HBH9); experiment: Inhibition of tracer 236 binding to full length human GST-tagged MKNK2 expressed in baculovirus expression system at 0.1 uM measured after 60 mins by Lanthascreen assay relative to control
# [12] = target: cAMP-dependent protein kinase catalytic subunit PRKX (Homo sapiens) (UniProt P51817); experiment: Inhibition of recombinant full length human GST-tagged PRKX expressed in baculovirus expression system at 0.1 uM using serine/threonine-1 peptide as substrate incubated for 60 mins by Z'-LYTE assay relative to control
# Sequence of cAMP-dependent protein kinase catalytic subunit PRKX (Homo sapiens) (P51817 whole entry, the tested form may be a part): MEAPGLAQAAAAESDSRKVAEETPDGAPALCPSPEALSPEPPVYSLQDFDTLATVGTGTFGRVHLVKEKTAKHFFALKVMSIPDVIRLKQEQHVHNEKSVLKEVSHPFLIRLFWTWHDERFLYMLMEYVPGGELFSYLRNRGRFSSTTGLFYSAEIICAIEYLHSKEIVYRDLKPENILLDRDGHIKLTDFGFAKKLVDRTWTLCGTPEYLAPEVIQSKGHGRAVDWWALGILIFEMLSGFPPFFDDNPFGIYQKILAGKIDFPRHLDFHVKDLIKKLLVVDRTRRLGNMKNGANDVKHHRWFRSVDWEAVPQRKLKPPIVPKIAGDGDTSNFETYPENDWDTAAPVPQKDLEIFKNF
# [13] = target: Vascular endothelial growth factor receptor 3 (Homo sapiens) (UniProt P35916); experiment: Inhibition of recombinant human GST-tagged FLT4 catalytic domain (800 to 1297 residues) expressed in baculovirus expression system at 0.1 uM using tyrosine-4 peptide as substrate incubated for 60 mins by Z'-LYTE assay relative to control
# [14] = target: Myosin light chain kinase, smooth muscle (Homo sapiens) (UniProt Q15746); experiment: Inhibition of tracer 236 binding to recombinant full length human GST-tagged MYLK expressed in baculovirus expression system at 0.1 uM measured after 60 mins by Lanthascreen assay relative to control
# [15] = target: Activated CDC42 kinase 1 (Homo sapiens) (UniProt Q07912); experiment: Inhibition of tracer 236 binding to recombinant human GST-tagged TNK2 catalytic domain (110 to 476 residues) expressed in baculovirus expression system at 0.1 uM measured after 60 mins by Lanthascreen assay
# Sequence of Activated CDC42 kinase 1 (Homo sapiens) (Q07912 whole entry, looked up, the tested form may be a part): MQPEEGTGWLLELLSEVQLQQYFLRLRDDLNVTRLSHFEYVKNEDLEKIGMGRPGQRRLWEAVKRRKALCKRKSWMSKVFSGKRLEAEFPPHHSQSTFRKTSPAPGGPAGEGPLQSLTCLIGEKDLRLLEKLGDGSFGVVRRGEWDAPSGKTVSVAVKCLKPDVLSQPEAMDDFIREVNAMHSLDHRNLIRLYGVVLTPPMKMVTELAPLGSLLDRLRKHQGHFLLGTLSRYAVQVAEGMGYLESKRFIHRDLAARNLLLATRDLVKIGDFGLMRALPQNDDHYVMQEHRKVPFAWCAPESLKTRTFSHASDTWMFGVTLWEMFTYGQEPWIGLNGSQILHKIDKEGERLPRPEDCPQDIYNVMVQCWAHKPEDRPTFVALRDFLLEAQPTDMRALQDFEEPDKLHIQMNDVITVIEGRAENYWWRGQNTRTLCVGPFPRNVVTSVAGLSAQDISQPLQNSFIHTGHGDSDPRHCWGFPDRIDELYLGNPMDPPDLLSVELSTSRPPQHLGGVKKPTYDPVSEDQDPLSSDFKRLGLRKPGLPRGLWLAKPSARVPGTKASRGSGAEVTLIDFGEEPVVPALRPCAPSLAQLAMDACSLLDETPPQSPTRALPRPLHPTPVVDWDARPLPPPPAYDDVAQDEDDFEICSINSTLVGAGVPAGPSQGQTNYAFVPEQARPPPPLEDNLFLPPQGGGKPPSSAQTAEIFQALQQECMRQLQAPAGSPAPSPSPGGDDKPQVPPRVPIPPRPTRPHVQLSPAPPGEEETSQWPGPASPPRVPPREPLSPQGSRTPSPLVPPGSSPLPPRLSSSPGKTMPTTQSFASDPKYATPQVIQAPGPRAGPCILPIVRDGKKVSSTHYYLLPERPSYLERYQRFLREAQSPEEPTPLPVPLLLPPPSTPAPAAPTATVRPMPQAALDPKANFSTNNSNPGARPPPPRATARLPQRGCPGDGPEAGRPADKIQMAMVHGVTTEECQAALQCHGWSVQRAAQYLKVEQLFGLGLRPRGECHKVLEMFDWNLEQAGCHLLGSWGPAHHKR
# [16] = target: Activin receptor type-1 (Homo sapiens) (UniProt Q04771); experiment: Inhibition of tracer 236 binding to recombinant human GST-tagged ALK2 catalytic domain (145 to 509 residues) expressed in baculovirus at 0.1 uM measured after 60 mins by Lanthascreen assay relative to control
# [17] = target: Serine/threonine-protein kinase D1 (Homo sapiens) (UniProt Q15139); experiment: Inhibition of recombinant full length human GST-tagged PKD1 expressed in baculovirus expression system at 0.1 uM using serine/threonine-17 peptide as substrate incubated for 60 mins by Z'-LYTE assay relative to control
# Sequence of Serine/threonine-protein kinase D1 (Homo sapiens) (Q15139 whole entry): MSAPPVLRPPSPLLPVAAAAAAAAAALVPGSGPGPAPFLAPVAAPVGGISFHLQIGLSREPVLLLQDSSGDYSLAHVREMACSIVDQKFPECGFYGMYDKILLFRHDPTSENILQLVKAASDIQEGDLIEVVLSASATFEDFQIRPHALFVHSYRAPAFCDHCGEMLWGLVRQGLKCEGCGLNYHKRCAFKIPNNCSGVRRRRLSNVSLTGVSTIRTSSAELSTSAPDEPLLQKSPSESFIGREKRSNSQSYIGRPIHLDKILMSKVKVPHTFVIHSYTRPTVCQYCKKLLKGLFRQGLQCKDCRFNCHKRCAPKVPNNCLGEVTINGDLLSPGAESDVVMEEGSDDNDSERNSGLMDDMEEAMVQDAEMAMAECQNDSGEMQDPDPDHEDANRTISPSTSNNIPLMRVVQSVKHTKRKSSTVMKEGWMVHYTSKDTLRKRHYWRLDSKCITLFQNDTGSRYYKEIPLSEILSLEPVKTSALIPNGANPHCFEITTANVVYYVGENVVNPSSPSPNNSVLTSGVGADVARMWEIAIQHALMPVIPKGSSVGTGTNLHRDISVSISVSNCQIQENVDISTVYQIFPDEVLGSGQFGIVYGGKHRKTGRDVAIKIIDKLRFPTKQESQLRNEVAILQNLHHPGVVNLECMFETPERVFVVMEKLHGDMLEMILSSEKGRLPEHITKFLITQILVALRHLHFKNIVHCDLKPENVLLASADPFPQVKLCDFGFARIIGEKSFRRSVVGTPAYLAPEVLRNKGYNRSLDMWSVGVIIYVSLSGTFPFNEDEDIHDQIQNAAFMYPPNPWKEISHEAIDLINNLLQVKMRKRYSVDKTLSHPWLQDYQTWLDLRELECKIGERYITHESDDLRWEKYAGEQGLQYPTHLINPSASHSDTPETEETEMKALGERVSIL
# [18] = target: Megakaryocyte-associated tyrosine-protein kinase (Homo sapiens) (UniProt P42679); experiment: Inhibition of recombinant full length human His-tagged HYL expressed in Escherichia coli expression system at 0.1 uM using tyrosine-1 peptide as substrate incubated for 60 mins by Z'-LYTE assay relative to control
# [19] = target: Mitogen-activated protein kinase 8 (Homo sapiens) (UniProt P45983); experiment: Inhibition of recombinant full length human His-tagged JNK1alpha1 expressed in baculovirus expression system at 0.1 uM using serine/threonine-4 peptide as substrate incubated for 60 mins by Z'-LYTE assay relative to control
# [20] = target: Myotonin-protein kinase (Homo sapiens) (UniProt Q09013); experiment: Inhibition of tracer 236 binding to recombinant full length human GST-tagged DMPK expressed in baculovirus expression system at 0.1 uM measured after 60 mins by Lanthascreen assay relative to control
# [21] = target: Serine/threonine-protein kinase Nek9 (Homo sapiens) (UniProt Q8TD19); experiment: Inhibition of recombinant human GST-tagged NEK9 catalytic domain (347 to 732 residues) expressed in baculovirus expression system at 0.1 uM using serine/threonine-7 peptide as substrate incubated for 60 mins by Z'-LYTE assay relative to control
# [22] = target: MAP/microtubule affinity-regulating kinase 3 (Homo sapiens) (UniProt P27448); experiment: Inhibition of recombinant full length human GST-tagged MARK3 expressed in baculovirus expression system at 0.1 uM using serine/threonine-25 peptide as substrate incubated for 60 mins by Z'-LYTE assay relative to control
# Sequence of MAP/microtubule affinity-regulating kinase 3 (Homo sapiens) (P27448 whole entry, looked up): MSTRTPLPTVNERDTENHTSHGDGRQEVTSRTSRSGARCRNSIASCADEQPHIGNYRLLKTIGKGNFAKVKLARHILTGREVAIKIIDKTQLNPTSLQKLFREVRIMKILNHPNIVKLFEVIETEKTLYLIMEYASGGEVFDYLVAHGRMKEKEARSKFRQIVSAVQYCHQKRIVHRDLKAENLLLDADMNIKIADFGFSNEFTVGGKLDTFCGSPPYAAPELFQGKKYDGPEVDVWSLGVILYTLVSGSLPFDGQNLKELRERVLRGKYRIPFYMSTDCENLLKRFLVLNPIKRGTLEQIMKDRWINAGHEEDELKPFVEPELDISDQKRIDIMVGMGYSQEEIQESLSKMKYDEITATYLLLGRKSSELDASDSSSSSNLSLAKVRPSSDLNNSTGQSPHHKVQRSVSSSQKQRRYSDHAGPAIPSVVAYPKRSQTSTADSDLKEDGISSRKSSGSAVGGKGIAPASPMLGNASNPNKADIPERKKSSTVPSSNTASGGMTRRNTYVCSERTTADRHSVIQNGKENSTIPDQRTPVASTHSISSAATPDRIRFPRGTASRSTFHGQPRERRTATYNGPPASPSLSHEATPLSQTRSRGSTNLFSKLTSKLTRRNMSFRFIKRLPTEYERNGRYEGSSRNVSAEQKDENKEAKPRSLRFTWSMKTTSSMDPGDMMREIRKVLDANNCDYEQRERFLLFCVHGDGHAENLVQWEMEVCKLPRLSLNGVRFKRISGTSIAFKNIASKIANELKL
# [23] = target: Cyclin-dependent kinase 4/cyclin D1 (Homo sapiens) (UniProt P11802+P24385); experiment: Inhibition of recombinant full length human GST-tagged CDK4/Cyclin D1 expressed in baculovirus expression system at 0.1 uM using Rb peptide as substrate incubated for 60 mins by Adapta assay relative to control
Structure (SMILES),inhibition [1],inhibition [2],inhibition [3],inhibition [4],inhibition [5],inhibition [6],inhibition [7],inhibition [8],inhibition [9],inhibition [10],inhibition [11],inhibition [12],inhibition [13],inhibition [14],inhibition [15],inhibition [16],inhibition [17],inhibition [18],inhibition [19],inhibition [20],also measured
CCN1CC2(C1)CN(c1ccc(Nc3ncc(F)c(-c4cnn5c4[C@H](C)CCCC5)n3)nc1)C2,5%,2.5%,6.5%,-2%,8%,8%,8%,72.5%,6.5%,9%,75%,5.5%,19%,5.5%,5%,28%,98.5%,-0.5%,78%,46%,inhibition [21]: -1.5%; inhibition [22]: 15%; inhibition [23]: 94%
CCN1CCN(Cc2ccc(Nc3ncc(F)c(-c4cc(F)c5nc(C)n(C(C)C)c5c4)n3)nc2)CC1 [ABEMACICLIB],12.5%,4.5%,2.1%,5.5%,30%,1.5%,43%,64%,14%,3.5%,18.3%,5%,4%,14.7%,2.4%,30.5%,62.5%,0%,46.2%,76.9%,inhibition [21]: 2%; inhibition [22]: 16%; inhibition [23]: 87%
